The values below come from ChEMBL document CHEMBL4609994, “Application of protein knockdown strategy targeting β-sheet structure to multiple disease-associated polyglutamine proteins” (Bioorg Med Chem, 2020).

Calls of active or inactive are those of the source. The calls are words filed in the database; no cut-off is given here.

In experiment [1] the test system is Baculoviral IAP repeat-containing protein 2/Atrophin-1 (Homo sapiens), Q13490+P54259 [UNDEFINED MUTATION]. Put plainly: Protac activity at C-IAP1/atrophin-1 mutant in fibroblasts derived from DRPLA patient assessed as reduction in mutant atrophin-1 expression at 10 uM after 24 hrs by Western blot analysis. (In general: In western blotting, separated proteins are transferred to a membrane and probed.)
Sequence of Baculoviral IAP repeat-containing protein 2/Atrophin-1 (Homo sapiens), Q13490+P54259 [UNDEFINED MUTATION] (P54259 whole entry, looked up, stated change not applied): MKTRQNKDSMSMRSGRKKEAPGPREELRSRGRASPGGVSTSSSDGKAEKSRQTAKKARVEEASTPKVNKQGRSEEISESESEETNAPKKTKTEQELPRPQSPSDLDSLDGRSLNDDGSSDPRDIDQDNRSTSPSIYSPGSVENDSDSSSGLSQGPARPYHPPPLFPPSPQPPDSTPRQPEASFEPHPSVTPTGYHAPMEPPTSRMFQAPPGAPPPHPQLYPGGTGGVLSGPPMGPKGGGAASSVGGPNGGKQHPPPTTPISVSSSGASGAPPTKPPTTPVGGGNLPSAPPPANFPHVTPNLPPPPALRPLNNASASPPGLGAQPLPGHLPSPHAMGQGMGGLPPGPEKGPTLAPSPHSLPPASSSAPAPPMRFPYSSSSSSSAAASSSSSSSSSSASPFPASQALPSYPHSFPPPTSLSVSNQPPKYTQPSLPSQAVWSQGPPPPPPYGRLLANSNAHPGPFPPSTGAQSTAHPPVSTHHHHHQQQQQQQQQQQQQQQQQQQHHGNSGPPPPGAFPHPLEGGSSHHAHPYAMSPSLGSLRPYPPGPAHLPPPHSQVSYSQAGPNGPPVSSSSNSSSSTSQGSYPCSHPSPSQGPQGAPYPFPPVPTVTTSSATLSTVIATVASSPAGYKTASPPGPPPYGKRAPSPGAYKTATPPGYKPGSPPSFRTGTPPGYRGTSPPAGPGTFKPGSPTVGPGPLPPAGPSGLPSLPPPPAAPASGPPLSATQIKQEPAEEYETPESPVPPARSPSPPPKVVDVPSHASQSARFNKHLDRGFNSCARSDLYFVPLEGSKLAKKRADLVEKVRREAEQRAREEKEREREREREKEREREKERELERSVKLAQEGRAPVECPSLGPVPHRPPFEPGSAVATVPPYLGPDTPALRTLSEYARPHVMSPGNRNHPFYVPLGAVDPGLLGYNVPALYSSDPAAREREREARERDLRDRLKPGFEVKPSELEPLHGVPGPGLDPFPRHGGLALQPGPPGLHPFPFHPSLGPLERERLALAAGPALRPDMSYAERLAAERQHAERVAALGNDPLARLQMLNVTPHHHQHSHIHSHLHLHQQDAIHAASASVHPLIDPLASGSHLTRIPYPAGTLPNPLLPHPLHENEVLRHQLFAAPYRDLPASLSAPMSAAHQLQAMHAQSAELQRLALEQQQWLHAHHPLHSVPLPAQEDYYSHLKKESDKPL
Sequence of Baculoviral IAP repeat-containing protein 2/Atrophin-1 (Homo sapiens), Q13490+P54259 [UNDEFINED MUTATION] (Q13490 whole entry, looked up, stated change not applied): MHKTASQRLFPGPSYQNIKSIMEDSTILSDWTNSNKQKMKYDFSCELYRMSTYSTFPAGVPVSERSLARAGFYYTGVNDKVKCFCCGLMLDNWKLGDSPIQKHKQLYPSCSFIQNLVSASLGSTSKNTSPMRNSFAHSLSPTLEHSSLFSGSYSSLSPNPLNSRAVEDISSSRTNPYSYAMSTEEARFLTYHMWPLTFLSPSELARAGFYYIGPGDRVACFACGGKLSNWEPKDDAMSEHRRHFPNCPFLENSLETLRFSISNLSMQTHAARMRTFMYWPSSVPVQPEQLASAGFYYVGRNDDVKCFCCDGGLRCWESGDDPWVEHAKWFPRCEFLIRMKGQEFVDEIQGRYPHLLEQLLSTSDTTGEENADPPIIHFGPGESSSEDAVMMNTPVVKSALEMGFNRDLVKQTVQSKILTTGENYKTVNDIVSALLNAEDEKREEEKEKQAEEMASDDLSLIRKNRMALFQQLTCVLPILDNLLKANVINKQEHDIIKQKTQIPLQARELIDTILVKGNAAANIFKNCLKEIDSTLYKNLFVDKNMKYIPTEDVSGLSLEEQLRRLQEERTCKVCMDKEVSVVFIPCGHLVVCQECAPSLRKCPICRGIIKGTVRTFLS

Experiment [2] has as its system Baculoviral IAP repeat-containing protein 2/Ataxin-7 (Homo sapiens), Q13490+O15265 [UNDEFINED MUTATION]. Put plainly: Protac activity at C-IAP1/ataxin-7 mutant in fibroblasts derived from SCA7 patient assessed as reduction in mutant ataxin-7 expression at 10 uM after 24 hrs by Western blot analysis.
For experiment [3] the test system is unchanged. Put plainly: Protac activity at C-IAP1/ataxin-7 mutant in fibroblasts derived from SCA7 patient assessed as reduction in mutant ataxin-7 expression after 24 to 48 hrs by Western blot analysis.
The test system of experiment [4] is Baculoviral IAP repeat-containing protein 2/Atrophin-1 (Homo sapiens), Q13490+P54259 [UNDEFINED MUTATION]. Put plainly: Protac activity at C-IAP1/atrophin-1 mutant in fibroblasts derived from DRPLA patient assessed as reduction in mutant atrophin-1 expression at 10 uM by Western blot analysis. The conditions noted are these: TDE = time-dependent effect.
Experiment [5] relates to Baculoviral IAP repeat-containing protein 2/Ataxin-3 (Homo sapiens), Q13490+P54252 [UNDEFINED MUTATION]. The experiment can be described thus: Protac activity at C-IAP1/ataxin-3 mutant in fibroblasts derived from SCA3 patient assessed as reduction in mutant ataxin-3 expression at 10 uM by Western blot analysis. The conditions noted are these: TDE = time-dependent effect.
Sequence of Baculoviral IAP repeat-containing protein 2/Ataxin-3 (Homo sapiens), Q13490+P54252 [UNDEFINED MUTATION] (P54252 whole entry, looked up, change not shown): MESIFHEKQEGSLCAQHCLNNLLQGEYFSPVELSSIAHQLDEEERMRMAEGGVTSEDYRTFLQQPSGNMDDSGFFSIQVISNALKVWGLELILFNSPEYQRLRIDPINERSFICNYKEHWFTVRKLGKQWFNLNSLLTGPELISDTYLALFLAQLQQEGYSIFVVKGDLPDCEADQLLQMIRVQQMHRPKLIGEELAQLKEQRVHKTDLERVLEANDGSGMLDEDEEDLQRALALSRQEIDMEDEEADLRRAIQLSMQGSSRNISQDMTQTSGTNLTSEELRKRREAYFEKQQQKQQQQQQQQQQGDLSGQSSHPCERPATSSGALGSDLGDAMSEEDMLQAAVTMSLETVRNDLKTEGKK
Sequence of Baculoviral IAP repeat-containing protein 2/Ataxin-3 (Homo sapiens), Q13490+P54252 [UNDEFINED MUTATION] (Q13490 whole entry, looked up, change not shown): as the sequence (Q13490 whole entry, looked up, stated change not applied) above

Experiment [6] relates to Baculoviral IAP repeat-containing protein 2/Atrophin-1 (Homo sapiens), Q13490+P54259 [UNDEFINED MUTATION]. Put plainly: Protac activity at C-IAP1/atrophin-1 mutant in fibroblasts derived from DRPLA patient assessed as reduction in mutant atrophin-1 expression after 24 to 48 hrs by Western blot analysis.
The subject of experiment [7] is Baculoviral IAP repeat-containing protein 2/Ataxin-3 (Homo sapiens), Q13490+P54252 [UNDEFINED MUTATION]. Put plainly: Protac activity at C-IAP1/Ataxin-3 mutant in fibroblasts derived from SCA3 patient assessed as reduction in mutant ataxin-3 expression after 24 to 48 hrs by Western blot analysis.
The test system of experiment [8] is Baculoviral IAP repeat-containing protein 2/Ataxin-7 (Homo sapiens), Q13490+O15265 [UNDEFINED MUTATION]. Put plainly: Protac activity at C-IAP1/ataxin-7 mutant in fibroblasts derived from SCA7 patient assessed as reduction in mutant ataxin-7 expression at 10 uM by Western blot analysis. The conditions noted are these: TDE = time-dependent effect.
Sequence of Baculoviral IAP repeat-containing protein 2/Ataxin-7 (Homo sapiens), Q13490+O15265 [UNDEFINED MUTATION] (O15265 whole entry, looked up, change not shown): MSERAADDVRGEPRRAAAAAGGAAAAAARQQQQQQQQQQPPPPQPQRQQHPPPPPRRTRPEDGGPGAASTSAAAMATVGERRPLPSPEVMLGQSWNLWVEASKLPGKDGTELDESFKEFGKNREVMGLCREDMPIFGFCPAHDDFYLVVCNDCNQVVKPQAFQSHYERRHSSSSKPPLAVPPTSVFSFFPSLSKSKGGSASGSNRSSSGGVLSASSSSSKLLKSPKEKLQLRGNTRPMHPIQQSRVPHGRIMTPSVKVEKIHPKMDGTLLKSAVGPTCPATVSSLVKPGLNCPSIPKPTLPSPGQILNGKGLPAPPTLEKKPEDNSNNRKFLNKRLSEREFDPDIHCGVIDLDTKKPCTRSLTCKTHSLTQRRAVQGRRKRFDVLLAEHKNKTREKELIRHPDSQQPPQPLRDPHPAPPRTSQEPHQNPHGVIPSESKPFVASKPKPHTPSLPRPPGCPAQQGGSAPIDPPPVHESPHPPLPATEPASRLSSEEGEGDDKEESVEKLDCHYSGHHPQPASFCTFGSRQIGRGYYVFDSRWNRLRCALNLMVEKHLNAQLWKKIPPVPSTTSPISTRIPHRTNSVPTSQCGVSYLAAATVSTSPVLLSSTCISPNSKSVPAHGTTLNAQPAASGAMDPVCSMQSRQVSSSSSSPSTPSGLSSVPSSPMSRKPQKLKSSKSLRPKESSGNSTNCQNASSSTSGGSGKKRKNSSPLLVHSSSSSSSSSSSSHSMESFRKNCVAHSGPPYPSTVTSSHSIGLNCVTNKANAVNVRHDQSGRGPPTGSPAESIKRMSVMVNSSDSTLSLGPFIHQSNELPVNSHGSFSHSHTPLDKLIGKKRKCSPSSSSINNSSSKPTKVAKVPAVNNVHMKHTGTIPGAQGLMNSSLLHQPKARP
Sequence of Baculoviral IAP repeat-containing protein 2/Ataxin-7 (Homo sapiens), Q13490+O15265 [UNDEFINED MUTATION] (Q13490 whole entry, looked up, change not shown): as the sequence (Q13490 whole entry, looked up, stated change not applied) above
Experiment [9] shares this test system. The experiment can be described thus: Protac activity at C-IAP1/ataxin-7 mutant in fibroblasts derived from SCA7 patient assessed as reduction in mutant ataxin-7 expression at 10 uM after 24 hrs in presence of proteasome inhibitor MG132 by Western blot analysis.
The test system is the same in experiment [10]. Put plainly: Protac activity at C-IAP1/ataxin-7 mutant in fibroblasts derived from SCA7 patient assessed as reduction in mutant ataxin-7 expression at 10 uM after 24 hrs in presence of proteasome inhibitor epoxomicin by Western blot analysis.
Experiment [11] relates to Baculoviral IAP repeat-containing protein 2/Atrophin-1 (Homo sapiens), Q13490+P54259 [UNDEFINED MUTATION]. Put plainly: Protac activity at C-IAP1/atrophin-1 mutant in fibroblasts derived from DRPLA patient assessed as reduction in mutant atrophin-1 expression at 10 uM after 24 hrs in presence of proteasome inhibitor epoxomicin by Western blot analysis.
Experiment [12] has the same test system. Put plainly: Protac activity at C-IAP1/atrophin-1 mutant in fibroblasts derived from DRPLA patient assessed as reduction in mutant atrophin-1 expression at 10 uM after 24 hrs in presence of proteasome inhibitor MG132 by Western blot analysis.

With `CNC(=O)[C@H](CC(C)C)NC(=O)[C@@H](O)[C@H](N)Cc1ccccc1`, the outcome in experiment [1] and in experiment [2] was inactive.

Turning to `CNc1ccc(-c2nc3ccc(C)cc3s2)cc1`, the outcome in [1] and in experiment [2] was inactive.

As to `CC(C)C[C@H](NC(=O)[C@@H](O)[C@H](N)Cc1ccccc1)C(=O)NCCOCCOCCOc1ccc2nc(/N=N/c3ccc(N(C)C)cc3)sc2c1`, the Activity entry was “Dose-dependent effect” in experiment [3]; “Tde” in experiment [4]; “Tde” in experiment [5]; “Dose-dependent effect” in [6]; “Dose-dependent effect” in [7]; “Tde” in experiment [8].

On to `Cc1ccc2nc(-c3ccc(NCCOCCOCCNC(=O)[C@H](CC(C)C)NC(=O)[C@@H](O)[C@H](N)Cc4ccccc4)cc3)sc2c1`, for which the Activity result is “Dose-dependent effect” in experiment [3]; “Tde” in experiment [4]; “Tde” in experiment [5]; “Dose-dependent effect” in experiment [6]; “Dose-dependent effect” in [7]; “Tde” in [8]. Moreover, the result in [1] and in experiment [2] was Active. Moreover, the outcome in experiment [9], in experiment [10], in experiment [11] and in [12] was inactive.
